Values of other authors in patent publication US20120252687A1, “Scoring Function Penalizing Compounds Which Desolvate Charged Protein Side Chains Structure” (priority 2011, published 2012).

Columns and labels:
[1] = molecular target: Cdk2 (Homo sapiens, UniProt P24941); conditions: PDB complex
[2] = molecular target: Jnk (Homo sapiens, UniProt P53779); conditions: PDB complex
Jnk, sequence (P53779 whole entry): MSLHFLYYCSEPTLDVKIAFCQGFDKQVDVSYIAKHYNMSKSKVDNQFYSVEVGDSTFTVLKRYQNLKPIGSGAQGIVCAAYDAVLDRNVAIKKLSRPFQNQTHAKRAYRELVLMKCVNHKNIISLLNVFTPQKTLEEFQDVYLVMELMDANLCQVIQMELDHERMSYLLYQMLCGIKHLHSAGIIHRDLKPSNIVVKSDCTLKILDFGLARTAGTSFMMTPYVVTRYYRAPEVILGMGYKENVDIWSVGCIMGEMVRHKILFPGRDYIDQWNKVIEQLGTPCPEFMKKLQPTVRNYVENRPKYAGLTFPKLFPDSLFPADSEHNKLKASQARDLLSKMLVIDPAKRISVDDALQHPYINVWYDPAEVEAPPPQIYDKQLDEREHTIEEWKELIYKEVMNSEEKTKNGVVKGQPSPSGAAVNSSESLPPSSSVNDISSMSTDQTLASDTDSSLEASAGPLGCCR

## NS(=O)(=O)c1ccc(Nc2cn3cc(C(=O)c4c(Cl)cccc4Cl)ccc3n2)cc1 [Cdk2_1ykr]
[1]
  dG (experimental free energy of binding): −8.5

## N#Cc1c(NC(=O)c2cccc3ccccc23)sc2c1CCN(C(=O)CCN1CCCCC1)C2 [Jnk_2o0u]
[2]
  dG (experimental free energy of binding): −7.5
